No end group written: not given here.
What was measured:
sheep red blood cells = test: Hemolytic activity assay; type: cell-based; conditions: peptides at 100 μg/mL, 1 h, relative to the δ-toxin and other STIPs
Protocol: Thirty-five percent defibrinated sheep’s blood (vol/vol) was centrifuged for 5 min at 4,000 rpm to harvest red blood cells. The cells were washed three times with PBS and harvested by centrifugation prior to dilution to 15% (vol/vol) in PBS in order to evaluate peptide-mediated hemolysis. The assay was performed in 96-well microtiter plates using peptides at 100 μg/mL in a 200-μL volume. […] was used as a negative control and Triton X-100 (0.1% vol/vol) was used as a positive control for complete lysis. After 1 h of incubation, the 96-well microtiter plates were centrifuged at 4,500 rpm for 10 min and a 150 μL aliquot of the supernatant from each sample was carefully transferred to a new 96-well plate. The absorbance of the supernatant was then measured at 540 nm using a Varioskan Lux plate reader (Thermo Scientific). The hemolytic activity is reported relative to complete lysis (%) obtained using Triton X-100. Experiments were performed in triplicate, and statistical differences in hemolysis were measured using an unpaired two-tailed Student’s t test to compare the STIPs and deformylated δ-toxin to the formylated δ-toxin.

[1] = tested on: MRSA ATCC 33592, ATCC 1683 and S. pseudintermedius SPC002; test: Bactericidal activity time course, short intervals; type: cell-based, Staphylococcus aureus; Staphylococcus pseudintermedius; conditions: 2× MIC, MH broth, 37°C
Protocol: Time-dependent inhibition of pathogens was measured using standing bacterial cultures treated with 2× MIC. Overnight cultures were diluted to 10^4 or 10^7 CFU/mL in 2 mL of MH broth supplemented with the appropriate peptide concentration or sterile water as a control. Standing cultures were then incubated at 37°C and 100 μL aliquots were removed at specified time intervals. For the panel of 7 MRSA strains, treatment intervals of 30 min, 4 h, 8 h, and 24 h were used. For MRSA ATCC 33592, ATCC 1683, and S. pseudintermedius SPC002, shorter intervals included 5, 30, 60, 120, 240, and 360 min. The 100-μL aliquots were plated using serial dilutions as necessary on LB agar, and CFU were counted as a measure of bacterial viability after 24 h. To normalize cell viability data, surviving cells in CFU/mL were compared to the initial bacterial inoculum of each strain and then expressed as a percentage of that concentration. All experiments were performed in triplicate with values reported as the mean with standard deviations. Statistical differences in the observed viability of bacteria treated with STIP3-29 were analyzed using a paired two-tailed Student’s t test comparing the pretreatment (0 h) viability to those observed at posttreatment time points using Stata v17.0 software.

TVGGLVKWILKTVKKFA-NH2 [STIP3-29]
Change of hemolytic activity (sheep red blood cells): increase in hemolysis | Viability within 5 min of treatment ([1]; 5 min, all three strains, normalized to the starting cell count): ≤ 40% | Recovery of viable bacteria after 2 h of treatment ([1]; 2 h, detection limit 10 CFU/mL): inability to recover viable bacteria

Source: article PMC8694143 (Microbiology Spectrum, 2021)
